From PubChem BioAssay (NCI)
“And” between values parts separate entries of the source, which are not always exact repeats. Identical values can stand only once.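 Cells were grown in 96-well plates and exposed to each compound for 48 hours at five concentrations; endpoints were interpolated linearly between bracketing concentrations, or set to the highest concentration if not reached. Abbreviation: GI50, concentration required for 50% inhibition of growth. TGI denotes the concentration required for complete inhibition of growth.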

Legend:
Test in all cases: growth of human tumour cells (NCI), 48 h
[1] = test system: EKVX NSCLC
[2] = test system: HOP-92 NSCLC
[3] = test system: HL-60(TB) leukemia
[4] = test system: UO-31 renal
[5] = test system: SK-OV-3 ovarian
[6] = test system: HS 578T breast
[7] = test system: SF-295 CNS
[8] = test system: A549 NSCLC
[9] = test system: MOLT-4 leukemia
[10] = test system: SW-620 colon

| SMILES | GI50 [1] | TGI [1] | GI50 [2] | TGI [2] | GI50 [3] | TGI [3] | GI50 [4] | TGI [4] | GI50 [5] | TGI [5] | GI50 [6] | TGI [6] | GI50 [7] | TGI [7] | GI50 [8] | TGI [8] | GI50 [9] | TGI [9] | GI50 [10] | TGI [10] |
| --- | --- | --- | --- | --- | --- | --- | --- | --- | --- | --- | --- | --- | --- | --- | --- | --- | --- | --- | --- | --- |
| COc1cc(Nc2ncccc2C(=O)NCc2cn(Cc3cccc(Oc4ccccc4)c3)nn2)cc(OC)c1 | 6.33 µM | > 100 µM | 46.7 µM | > 100 µM | 3.97 µM | > 100 µM | 5.25 µM | > 100 µM | 4.33 µM | > 100 µM | > 100 µM | > 100 µM | 4.06 µM | > 100 µM | 4.02 µM | > 100 µM | 4.86 µM | > 100 µM | 3.88 µM | > 100 µM |
| N#Cc1c(NC(=O)NCc2ccccc2)sc2c1CCCCC2 | 0.461 µM | > 100 µM | 0.547 µM | 20.9 µM | 0.286 µM | 0.843 µM | 0.626 µM | > 100 µM | 0.799 µM | > 100 µM | 0.314 µM | 9.33 µM | 0.425 µM | 24 µM | 0.626 µM | > 100 µM | 0.456 µM | > 100 µM | 0.406 µM | > 100 µM |
| CCCCC#CC1=C(Br)C(=O)OC1 | 3.79 µM | 10.7 µM | 2.04 µM | 18.7 µM | 0.249 µM | > 100 µM | 1.37 µM | 3.1 µM | 36.1 µM | > 77.2 µM | 3.89 µM | 23.1 µM | 6.2 µM | 28.2 µM | 17.2 µM | 43.4 µM | 0.319 µM | > 100 µM | 0.0237 µM | 0.21 µM |
| COc1cccc(C2CC(C)(O)Oc3cc4c(cc32)OCO4)c1O (stereo unspecified) |  | 99.4 µM |  | 92.5 µM |  | > 59 µM |  | 97.9 µM |  | > 100 µM |  | 51.6 µM |  | 64.9 µM |  | > 100 µM |  | > 94.3 µM |  | > 100 µM |
| N#Cc1c(N)nc(N2CCOCC2)c(C#N)c1-c1ccncc1 | 66.7 µM | > 100 µM | 31.7 µM | > 100 µM | 62.9 µM | > 100 µM | 31.3 µM | > 100 µM | 37 µM | > 100 µM | 38.3 µM | > 100 µM | 44.3 µM | > 100 µM | > 100 µM | > 100 µM | > 100 µM | > 100 µM | > 100 µM | > 100 µM |
| COC(=O)COc1ccccc1/C=C1\N=C(c2ccccc2)N(c2cc(C(F)(F)F)ccc2Cl)C1=O | > 100 µM | > 100 µM | 33.2 µM | > 100 µM | 31.1 µM | > 100 µM | 22.3 µM | 52.8 µM | 57.7 µM | > 100 µM | 35.6 µM | > 100 µM | > 100 µM | > 100 µM | 97.4 µM | > 100 µM | 23 µM | 62.3 µM | 38.8 µM | > 100 µM |
| C(=NCCN1CCOCC1)=NC1CCCCC1 |  | > 100 µM |  | > 100 µM |  |  |  | > 100 µM |  | > 100 µM |  | > 100 µM |  | > 100 µM |  | > 100 µM |  | > 100 µM |  | > 100 µM |
| O=C(Nc1ccc2ncccc2c1)Nc1ccc2ncccc2c1 |  | > 100 µM |  | > 100 µM |  |  |  | > 100 µM |  | > 100 µM |  | > 100 µM |  | > 100 µM |  | > 100 µM |  | > 100 µM |  | > 100 µM |
| COC(=O)C[C@](O)(CCCC(C)(C)O)C(=O)O[C@@H]1C(OC)=C[C@]23CCCN2CCc2cc4c(cc2[C@H]13)OCO4 | 0.0486 µM | 0.688 µM and 0.472 µM | 0.0224 µM | 0.633 µM and 0.156 µM | 0.0249 µM | 0.237 µM and 0.0758 µM | 0.181 µM | 2.01 µM and 3.13 µM | 0.0284 µM | 1.82 µM and 0.395 µM | 0.0333 µM |  | 0.0237 µM |  | 0.0953 µM and 0.0238 µM |  |  |  | 0.0293 µM | 2.59 µM and 5.05 µM |
| Cc1cc(Nc2ccc(NC(=O)c3ccc(Nc4ccnc5ccccc45)cc3)cc2)nc(N)n1 | 2.95 µM | > 100 µM | 2.13 µM | 6.59 µM | 7.31 µM | > 100 µM | 50.9 µM | > 100 µM | 7.15 µM | 54.8 µM | 5.79 µM | > 100 µM | 4.81 µM | 39.6 µM | 14.6 µM | > 100 µM |  |  | 1.37 µM | > 100 µM |
| Cn1cc(C2=C(c3ccc(N)cc3)C(=O)NC2=O)c2ccccc21 |  |  | > 25 µM | > 25 µM | 8.58 µM | > 25 µM | 16.5 µM | > 25 µM | 13.9 µM | > 25 µM | 3.01 µM | > 16.1 µM | 15.7 µM | > 25 µM | 18.4 µM | > 25 µM | 9.3 µM | > 25 µM | 13.7 µM | > 25 µM |
| Cc1cc(C)c2c(n1)sc1c(Nc3ccc(Cl)cc3)ncnc12 |  |  | 0.0288 µM |  | < 0.01 µM |  | < 0.01 µM |  | 0.0418 µM | > 100 µM | > 100 µM | > 100 µM | 0.0209 µM | > 100 µM | < 0.01 µM | > 100 µM | < 0.01 µM | > 100 µM | < 0.01 µM | > 100 µM |
| CC(C)C1=CC23CCC4C(C)(C(=O)O)CCCC4(C)C2CC1C1C(=O)N(c2ccc(Cc4ccc(N5C(=O)C6C7CC8C9(C)CCCC(C)(C(=O)O)C9CCC8(C=C7C(C)C)C6C5=O)cc4)cc2)C(=O)C13 (stereo unspecified) |  | 24.9 µM |  | 36.8 µM |  | 63.2 µM |  | 31.3 µM |  |  |  | 32.8 µM |  |  |  | 15.7 µM |  | 32.9 µM |  | 31.2 µM |
| CO/N=C(/C)c1cccc(Nc2cc(-n3nnc4ccccc43)nc3ccccc23)c1 | 27.3 µM | 86.2 µM | 3.98 µM | 37.4 µM |  |  | > 100 µM | > 100 µM | > 100 µM | > 100 µM | 42.8 µM | > 100 µM | 15 µM | 64.1 µM | 38.7 µM | > 100 µM | 7.18 µM | > 100 µM | 34.1 µM | > 100 µM |
| COc1cccc2c1C(=O)c1c(O)c3c(c(O)c1C2=O)C[C@@](O)(C(=O)CO)C[C@@H]3OC1CC(N)CC(C)O1 (stereo partly specified) | 0.152 µM | 0.839 µM and 0.61 µM | 0.0638 µM | 0.275 µM and 0.353 µM | 0.0091 µM and 0.00929 µM and 0.0412 µM | 0.122 µM and 0.939 µM | 0.192 µM and 0.362 µM | 0.771 µM and 1.61 µM | 0.0837 µM | 0.94 µM and 3.52 µM | 0.0504 µM and 0.119 µM |  | 0.018 µM | 0.208 µM and 0.13 µM | 0.00992 µM and 0.0107 µM and 0.0315 µM |  |  |  | 0.0117 µM and 0.0389 µM | 0.434 µM and 1.36 µM |
